Test results reported in patent publication EP4585216A1, “HETEROCYCLIC COMPOUNDS FOR THE TREATMENT OF FATTY LIVER DISEASE” (ScandiEdge Therapeutics AB, priority 2024, dated 2025).
Where “and” joins values, the source holds several entries; their conditions need not be identical. Equal values may be shown once. Entries after “also recorded” stand apart in the source; their conditions may differ.

Key:
[1] = target: T1, pyruvate kinase liver (PKL) (Homo sapiens, UniProt P30613); assay: Pyruvate kinase activity in HepG2 PKM2 CRISPR KO protein lysate; type: biochemical
T1 construct: endogenous in cells; host or cells: HepG2 PKM2 CRISPR KO (HepG2 KO) cells; lysate in CelLytic M or treated whole cells
T1 sequence (P30613 1-543 isoform P30613-2): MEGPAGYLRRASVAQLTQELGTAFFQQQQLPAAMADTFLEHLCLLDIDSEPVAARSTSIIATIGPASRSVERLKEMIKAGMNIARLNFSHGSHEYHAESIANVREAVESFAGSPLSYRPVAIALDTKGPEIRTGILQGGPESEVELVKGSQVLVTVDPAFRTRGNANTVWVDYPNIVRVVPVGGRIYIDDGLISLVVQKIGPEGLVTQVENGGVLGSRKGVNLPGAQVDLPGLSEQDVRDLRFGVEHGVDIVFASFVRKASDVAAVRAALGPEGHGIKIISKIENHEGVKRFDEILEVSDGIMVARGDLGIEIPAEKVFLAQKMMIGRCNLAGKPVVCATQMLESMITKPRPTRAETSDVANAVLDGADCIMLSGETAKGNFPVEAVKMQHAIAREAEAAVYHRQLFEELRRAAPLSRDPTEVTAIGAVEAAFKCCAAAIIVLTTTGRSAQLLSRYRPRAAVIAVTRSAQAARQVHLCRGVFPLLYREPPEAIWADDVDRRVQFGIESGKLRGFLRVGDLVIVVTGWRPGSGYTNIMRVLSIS
Method: (§1) HepG2 WT and HepG2 KO cells were lysed, and protein lysate was prepared with CelLytic M (C2978, Sigma-Aldrich) lysis buffer. Protein lysate was treated with 10 µM of the drugs and the pyruvate kinase activity on protein lysate was measured using Pyruvate Kinase Assay Kit (ab83432, abeam) following manufacturer's instruction. 2×10^4 HepG2 WT cells and 1×10^5 HepG2 KO cells were seeded into a 96-well plate for measuring pyruvate kinase activity in the cells. The cells were treated with 10-20µM of drugs for 4h and washed with 250µl PBS. Cells were lysed with 50 µl PK assay buffer (ab83432, abcam) and start reaction and kinetic O.D measurement was performed on 50µl PK assay buffer containing the assay component (ab83432, abcam). O.D values were measured with microplate reader (Hidex Sense Beta Plus) at 570nm wavelength. DMSO was used as control.
(§2) The effect of the target compounds was studied on liver cell line HepG2. HepG2 expresses two different pyruvate kinases (PK), pyruvate kinase muscle (PKM2) and pyruvate kinase liver (PKL). While most cells express PKM, liver cells further express PKL. […] In addition to HepG2 KO cell, HepG2 wild-type (HepG2 WT) cells were also used.

pyruvate kinase (PK) [2] = assay: Pyruvate kinase activity in HepG2 WT protein lysate; type: biochemical; details: 10 µM
Method: as §1, §2

[3] = target: T1, pyruvate kinase liver (PKL); assay: Pyruvate kinase activity in treated HepG2 PKM2 CRISPR KO cells; type: cell-based; details: 20 µM for 4 h
Method: as §1, §2

pyruvate kinase (PK) [4] = assay: Pyruvate kinase activity in treated HepG2 WT cells; type: cell-based; details: 20 µM for 4 h
Method: as §1, §2

HepG2 cells [5] = assay: TAG measurement in DNL steatosis model; type: cell-based
Method: (§3) HepG2 wild type cells were purchased from genome engineering company Synthego. Cells were maintained with growth media RPMI 1640 (R2405, Sigma-Aldrich) and supplemented with 10 % fetal bovine serum (FBS, F7524, Sigma-Aldrich), 1 % penicillin-streptomycin (P/S media, P4333, Sigma-Aldrich). Steatosis induction media was prepared as DMEM high glucose (D0819, Sigma-Aldrich) with 10% FBS, 1% P/S media supplemented with 10µg/ml insulin (I9278, Sigma-Aldrich), and 10µM T0901317 (T2320, Sigma-Aldrich) for one week. HepG2 cells were seeded 6×10^4 cells per well into a 96-well plate for TAG and MTT assay after steatosis and 1×10^6 cells per well into 6-well plate for western blot analysis after steatosis. HepG2 cells were incubated with steatosis induce media (SM) for one week by 3 day + 2 day + 2 day with total three times media exchange.
(§4) HepG2 cells were seeded at 6×10^4 cells per well into 96-well plate and induced steatosis for one week with designated concentration of small molecules (this will be referred to as a DNL steatosis model). After steatosis induction, cells were washed with 200 µl of PBS and triglyceride contents was measured by Triglyceride Assay Kit - Quantification (ab65336, Abeam) following manufacturer's instruction. Optical density (O.D) values were detected with microplate reader at 570 nm (Hidex Sense Beta Plus).
(§5) 5 mg/ml MTT (M2128, Sigma-Aldrich) solution in PBS (10 µL) was added to each well for MTT assay. After 1 hr, MTT solution and all media were removed from the wells. 100 µl of DMSO was added and mixed to dissolve the formazan crystals. Cell viability was analysed by measuring the absorbance of the dissolved formazan in a microplate reader at a wavelength of 570 nm with microplate reader (Hidex Sense Beta Plus). DMSO was used as control.

HepG2 cells [6] = assay: MTT assay (cell viability) in DNL steatosis model; type: cell-based
Method: as §3, §4, §5

PKL [7] = assay: Western blot of DNL steatosis model, PKL expression; type: cell-based; details: 5 µM
Method: as §3
(§6) After steatosis induction with designated concentration of compounds, whole cell lysate was prepared with CelLytic M (C2978, Sigma-Aldrich) buffer. SDS PAGE was performed on Mini-PROTEAN® TGX™ Precast Gels (Bio-Rad) and transferred using Trans-Blot® Turbo™ Transfer System (Bio-Rad). […] Protein band was detected with ImageQuantTMLAS 500 (29-0050-63, GE). […]

[8] = test system: fatty acid synthase (FASN); assay: Western blot of DNL steatosis model, FASN expression; type: cell-based; details: 5 µM
Method: as §3, §6

PKM2 [9] = assay: Western blot of DNL steatosis model, PKM2 expression; type: cell-based; details: 5 µM
Method: as §3, §6

PKM2 [10] = target: T2, PKM2 (Homo sapiens, UniProt P14618); assay: Cellular thermal shift assay (Cetsa), PKM2; type: cell-based; details: HepG2 WT cells, 10 and 20 µM for 2 h, heat shock 60°C 5 min
T2 construct: host or cells: HepG2 wild-type cells
T2 sequence (P14618 2-531 limits assumed): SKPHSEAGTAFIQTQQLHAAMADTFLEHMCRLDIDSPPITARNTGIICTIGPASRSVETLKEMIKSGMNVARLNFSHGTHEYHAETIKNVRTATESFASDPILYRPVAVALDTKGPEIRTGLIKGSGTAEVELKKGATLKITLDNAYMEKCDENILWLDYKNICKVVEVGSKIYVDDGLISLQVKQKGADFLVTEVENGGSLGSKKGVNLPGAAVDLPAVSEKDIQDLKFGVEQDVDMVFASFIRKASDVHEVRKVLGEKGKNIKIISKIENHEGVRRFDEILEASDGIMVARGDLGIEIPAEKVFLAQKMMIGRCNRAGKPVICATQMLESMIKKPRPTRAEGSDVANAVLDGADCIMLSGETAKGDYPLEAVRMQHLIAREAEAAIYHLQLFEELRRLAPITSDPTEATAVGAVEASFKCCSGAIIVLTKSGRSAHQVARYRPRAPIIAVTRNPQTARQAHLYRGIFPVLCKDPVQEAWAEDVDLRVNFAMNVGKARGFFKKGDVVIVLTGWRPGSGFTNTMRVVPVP
Method: (§7) HepG2 WT cells were trypsinized and transferred into 1.5ml tube at a concentration of 500,000 cells per ml. The cells were treated with 10µM and 20µM SET-62 in an 1.5 ml tube and incubated for 2 h at 37°C in an CO2 incubator. The tubes were exposed to heat shock at 60°C for 5 min with a pre-heated heat block. After centrifugation of the heated cells at 13,000 rpm for 1 min, the cells were lysed with 50 µl of Native lysis Buffer (ab156035, abeam). Centrifugation was performed again to purify soluble proteins in the lysed solution and 9 µl of each group were analysed using western blot. DMSO was used as control.

PKL [11] = target: T3, PKL (Homo sapiens, UniProt P30613); assay: Cellular thermal shift assay (Cetsa), PKL; type: cell-based; details: HepG2 WT cells, 10 and 20 µM for 2 h, heat shock 60°C 5 min
T3 construct: host or cells: HepG2 wild-type cells
T3 sequence (P30613 1-543 isoform P30613-2): as the sequence (P30613 1-543 isoform P30613-2) above
Method: as §7

- PK activity of HepG2 KO protein lysate (in words) ([1]; 10 µM, batches 4 and 5): highest inhibitory effect
- inhibition at 10 µM ([1]; compared to the control (DMSO), read-out: reduction in PK activity of HepG2 KO protein lysate): 57%
- PK activity of HepG2 WT protein lysate (in words) (pyruvate kinase (PK) [2]; batches 4 and 5): highest inhibitory effect
- reduction in PK activity of HepG2 WT protein lysate (pyruvate kinase (PK) [2]; compared to the control (DMSO)): 59.9%
- decrease in PK activity of HepG2 KO cells [3]: 32.8% and 24.4%
- effect on PK activity in HepG2 KO cells (in words) [3]: decreased the PK activity
- increase of the solubility of PKM2 (PKM2 [10]): 12-18%
- decrease of the solubility of PKL (PKL [11]): ~ 38%
Structure (SMILES): O=S1(=O)c2cc(O)c(O)cc2-c2ccc(C(F)(F)F)cc2N1Cc1ccccc1 [SET-62, 6-benzyl-2,'3-dihydroxy-8-(trifluoromethyl)-6H-dibenzo[c,e][1,2]thiazine 5,5-dioxide]
- effect on PK activity in HepG2 WT cells (in words) (pyruvate kinase (PK) [4]): slightly increased the PK activity
- increase in PK activity of HepG2 WT cells (pyruvate kinase (PK) [4]): 6% and 9.0%
- TAG/MTT reduced to (HepG2 cells [5]; 0.625 µM for one week): 15.0%
- TAG/MTT ratio reduced to (HepG2 cells [5]; 5 µM for one week): 49.4% and 61.3%
- TAG content (in words) (HepG2 cells [5]; 10 µM for 1 week): reduced TAG content
- TAG/MTT ratio (HepG2 cells [5]; 10 µM for 1 week): 92.9%
- cell viability (in words) (HepG2 cells [6]; 5 µM for 1 week (batch 4)): increased the cell viability
- cell viability (MTT assay, in words) (HepG2 cells [6]; 10 µM for 1 week): decreased cell viability; also recorded: strong toxicity
- cell viability / toxicity (in words) (HepG2 cells [6]; lower doses (5 µM, 2.5 µM, 1.25 µM, 0.625 µM), one week): did not exhibit any toxicity
- PKL protein expression level (PKL [7]): decreased
- FASN protein expression level [8]: decreased
- expression of PKM2 (PKM2 [9]): slight increase
